Reference: patent publication US6781000B1, “Alpha-ketoamide inhibitors of 20S proteasome” (CV Theurapeutics, Inc., priority 1998, dated 2004)

Biological target: T1, chymotrypsin-like activity of 20S proteasome (Bos taurus, UniProt Q2TBX6+Q32KL2)
T1 construct: was purified to homogeneity from bovine brain according to published methods; from tissue; host or cells: bovine brain
Assay: 20S proteasome chymotryptic activity inhibition assay (Suc-Leu-Leu-Val-Tyr-AMC cleavage)
Format: biochemical
Conditions: 2 μg 20S proteasome from bovine brain, 50 μM fluorogenic substrate, 15 minutes at 37° C., pH7.5
Method: Compounds of this invention prepared according to the method of Example 1 were tested as follows. The 20S catalytic subunit of the proteasome (also known as the multicatalytic proteinase complex) was purified to homogeneity from bovine brain according to published methods (Wilk S. and Orlowski,M 1983, 40 842 J.Neurochem). The chymotryptic activity of the complex is measured by the increase in fluorescence following cleavage of the substrate peptide succinyl-leucine-leucine-valine-tyrosine-7-amino-4methyl coumarin. The standard in vitro assay consists of 2 μg 20S proteasome, 0.1-100 μg/ml proteasome inhibitor in 200 μl 50 mM HEPES, containing 0.1% sodium dodecyl sulphate, pH7.5. The proteolytic reaction is initiated by the addition of 50 μM flourogenic peptide substrate and allowed to progress for 15 minutes at 37° C. The reaction is terminated by the addition of 100 μL of 100 mM acetate buffer, pH4.0. The rate of proteolysis is directly proportional to the amount of liberated aminomethylcoumarin which is measured by fluorescent spectroscopy (EX 370 nm, EM 430 nm).

Structure (SMILES) | IC50 for the inhibition of the chymotrypsin-like activity of 20S proteasome [µg/mL] | IC50 [µM]
CC(C)CC(NC(=O)C(=O)Cc1c[nH]c2ccccc12)C(=O)NC(CC(C)C)C(=O)NC(Cc1ccc(O)cc1)C(=O)O (centres unmarked) [Compound 88] |  | > 16.9
CCCCC(NC(=O)C(=O)Cc1c[nH]c2ccccc12)C(=O)NC(CC(C)C)C(=O)NC(Cc1ccccc1)C(=O)O (centres unmarked) [Compound 106] | >10 | 
CC(C)CC(NC(=O)C(Cc1ccc2ccccc2c1)NC(=O)C(=O)Cc1c[nH]c2ccccc12)C(=O)NC(Cc1c[nH]cn1)C(=O)O (centres unmarked) [Compound 204] | >10 | 
CC(C)CC(NC(=O)C(Cc1ccc(-c2ccccc2)cc1)NC(=O)C(=O)Cc1c[nH]c2ccccc12)C(=O)NC(Cc1c[nH]cn1)C(=O)O (centres unmarked) [Compound 196] | >10 | 
CC(C)CC(NC(=O)C(Cc1ccc(-c2ccccc2)cc1)NC(=O)C(=O)Cc1c[nH]c2ccccc12)C(=O)NC(C)C(=O)O (centres unmarked) [Compound 81] |  | > 16.4
CC(C)CC(NC(=O)C(Cc1ccccc1)NC(=O)C(=O)Cc1c[nH]c2ccccc12)C(=O)NC(CO)C(=O)O (centres unmarked) [Compound 92] | >10 | 
CC(C)CC(NC(=O)C(NC(=O)C(=O)Cc1c[nH]c2ccccc12)C(C)C)C(=O)NC(C(=O)O)C(C)C (centres unmarked) [Compound 44] | >10 | 
CC(C)CC(NC(=O)C(Cc1ccc(-c2ccccc2)cc1)NC(=O)C(=O)Cc1c[nH]c2ccccc12)C(=O)NC(C(=O)O)c1ccccc1 (centres unmarked) [Compound 194] | >10 | 
CC(C)CC(NC(=O)C(Cc1ccc2ccccc2c1)NC(=O)C(=O)Cc1c[nH]c2ccccc12)C(=O)NC(CCC(=O)O)C(=O)O (centres unmarked) [Compound 162] | >10 | 
CCC(C)C(NC(=O)C(CC(C)C)NC(=O)C(CC(C)C)NC(=O)C(=O)Cc1c[nH]c2ccccc12)C(=O)O (centres unmarked) [Compound 34] | >10 | 
CC(C)CC(NC(=O)C(Cc1cccnc1)NC(=O)C(=O)Cc1c[nH]c2ccccc12)C(=O)NCC(=O)O (centres unmarked) [Compound 169] | >10 | 
CC(C)CC(NC(=O)C(Cc1ccccc1)NC(=O)C(=O)Cc1c[nH]c2ccccc12)C(=O)NC(Cc1ccccc1)C(=O)O (centres unmarked) [Compound 107] | >10 | 
CC(C)CC(NC(=O)C(Cc1ccc(-c2ccccc2)cc1)NC(=O)C(=O)Cc1c[nH]c2ccccc12)C(=O)NCC(=O)O (centres unmarked) [Compound 171] | >10 | 
CCC(C)C(NC(=O)C(=O)Cc1c[nH]c2ccccc12)C(=O)NC(CC(C)C)C(=O)NC(C(=O)O)C(C)C (centres unmarked) [Compound 47] | >10 | 
CCCCC(NC(=O)C(CC(C)C)NC(=O)C(Cc1ccc2ccccc2c1)NC(=O)C(=O)Cc1c[nH]c2ccccc12)C(=O)O (centres unmarked) [Compound 178] | >10 | 
CC(C)CC(NC(=O)C(Cc1ccc(-c2ccccc2)cc1)NC(=O)C(=O)Cc1c[nH]c2ccccc12)C(=O)NC(CCC(N)=O)C(=O)O (centres unmarked) [Compound 186] | >10 | 
CC(C)C[C@H](NC(=O)C(=O)Cc1c[nH]c2ccccc12)C(=O)N[C@H](CC(C)C)C(=O)N[C@H](C(=O)O)C(C)C [Compound 17] |  | > 18.9
CC(C)CC(NC(=O)C(=O)Cc1c[nH]c2ccccc12)C(=O)NC(CC(C)C)C(=O)NC(C)C(=O)O (centres unmarked) [Compound 20] | >10 | 
CCC(C)C(NC(=O)C(=O)Cc1c[nH]c2ccccc12)C(=O)NC(CC(C)C)C(=O)NC(C(=O)O)C(C)C (centres unmarked) [Compound 167] | >10 | 
CC(C)CC(NC(=O)C(Cc1ccc(O)cc1)NC(=O)C(=O)Cc1c[nH]c2ccccc12)C(=O)NC(C(=O)O)C(C)C (centres unmarked) [Compound 46] | >10 | 
CC(C)CC(NC(=O)C(NC(=O)C(=O)Cc1c[nH]c2ccccc12)C(C)C)C(=O)NC(C)C(=O)O (centres unmarked) [Compound 74] | >10 | 
CC(C)CC(NC(=O)C(Cc1ccc(-c2ccccc2)cc1)NC(=O)C(=O)Cc1c[nH]c2ccccc12)C(=O)NC(Cc1cscn1)C(=O)O (centres unmarked) [Compound 198] | >10 | 
CC(C)CC(NC(=O)C(C)NC(=O)OCc1c[nH]c2ccccc12)C(=O)NC(C)C(=O)O (centres unmarked) [Compound 72] | >10 | 
CC(C)CC(NC(=O)C(CC1CCCCC1)NC(=O)C(=O)Cc1c[nH]c2ccccc12)C(=O)NC(CCC(=O)O)C(=O)O (centres unmarked) [Compound 160] | >10 | 
CC(C)CC(NC(=O)C(Cc1ccc(-c2ccccc2)cc1)NC(=O)C(=O)Cc1c[nH]c2ccccc12)C(=O)NC(C(=O)O)C(C)C (centres unmarked) [Compound 165] | >10 | 
CC(C)CC(NC(=O)C(Cc1ccc(-c2ccccc2)cc1)NC(=O)C(=O)Cc1c[nH]c2ccccc12)C(=O)NC(CCCNC(=N)N)C(=O)O (centres unmarked) [Compound 191] |  | 4.31

Results, then the molecule that gave them:

IC50 for the inhibition of the chymotrypsin-like activity of 20S proteasome [µg/mL] | IC50 [µM] | Structure (SMILES)
>10 |  | CC(C)CC(NC(=O)C(=O)Cc1c[nH]c2ccccc12)C(=O)NC(CC(C)C)C(=O)NCC(=O)O (centres unmarked) [Compound 85]
>10 |  | CCCCC(NC(=O)C(=O)Cc1c[nH]c2ccccc12)C(=O)NC(CC(C)C)C(=O)NC(CCC(=O)O)C(=O)O (centres unmarked) [Compound 151]
>10 |  | CC(C)CC(NC(=O)CCNC(=O)C(=O)Cc1c[nH]c2ccccc12)C(=O)NC(CCC(=O)O)C(=O)O (centres unmarked) [Compound 150]
>10 |  | CCC(C)C(NC(=O)C(=O)Cc1c[nH]c2ccccc12)C(=O)NC(CC(C)C)C(=O)NCC(=O)O (centres unmarked) [Compound 62]
>10 |  | CC(C)CC(NC(=O)C(NC(=O)C(=O)Cc1c[nH]c2ccccc12)C(C)O)C(=O)NC(CC(=O)O)C(=O)O (centres unmarked) [Compound 138]
>10 |  | CC(C)CC(NC(=O)CCNC(=O)C(=O)Cc1c[nH]c2ccccc12)C(=O)NC(CO)C(=O)O (centres unmarked) [Compound 90]
>10 |  | CC(C)CC(NC(=O)CNC(=O)C(=O)Cc1c[nH]c2ccccc12)C(=O)NC(CC(=O)O)C(=O)O (centres unmarked) [Compound 134]
>10 |  | CC(C)CC(NC(=O)CCNC(=O)C(=O)Cc1c[nH]c2ccccc12)C(=O)NC(CC(=O)O)C(=O)O (centres unmarked) [Compound 135]
>10 |  | CC(C)CC(NC(=O)CNC(=O)C(=O)Cc1c[nH]c2ccccc12)C(=O)NC(Cc1ccccc1)C(=O)O (centres unmarked) [Compound 104]
>10 |  | CC(C)CC(NC(=O)C(Cc1ccc(O)cc1)NC(=O)C(=O)Cc1c[nH]c2ccccc12)C(=O)NC(CC(=O)O)C(=O)O (centres unmarked) [Compound 143]
>10 |  | CC(C)CC(NC(=O)C(Cc1ccccc1)NC(=O)C(=O)Cc1c[nH]c2ccccc12)C(=O)NC(CCC(=O)O)C(=O)O (centres unmarked) [Compound 152]
>10 |  | CC(C)CC(NC(=O)C(NC(=O)C(=O)Cc1c[nH]c2ccccc12)C(C)O)C(=O)NC(CCC(=O)O)C(=O)O (centres unmarked) [Compound 153]
